In patent US9273057B2 (Bristol-Myers Squibb Company, priority 2012, dated 2016) one finds IC50 data, which are given here for 19 compounds.

Structures are written as SMILES.

The target of this experiment is CK2A1 (CK2α/β) (Homo sapiens, UniProt P68400). Nature of the experiment: CK2 kinase assay, CK2A1 (CK2α/β). Type of experiment: biochemical. As to conditions: Table A; read-out: CK2A1 (CK2α/β) (IC50).
Chain of CK2A1 (CK2α/β) (P68400 whole entry, species assumed): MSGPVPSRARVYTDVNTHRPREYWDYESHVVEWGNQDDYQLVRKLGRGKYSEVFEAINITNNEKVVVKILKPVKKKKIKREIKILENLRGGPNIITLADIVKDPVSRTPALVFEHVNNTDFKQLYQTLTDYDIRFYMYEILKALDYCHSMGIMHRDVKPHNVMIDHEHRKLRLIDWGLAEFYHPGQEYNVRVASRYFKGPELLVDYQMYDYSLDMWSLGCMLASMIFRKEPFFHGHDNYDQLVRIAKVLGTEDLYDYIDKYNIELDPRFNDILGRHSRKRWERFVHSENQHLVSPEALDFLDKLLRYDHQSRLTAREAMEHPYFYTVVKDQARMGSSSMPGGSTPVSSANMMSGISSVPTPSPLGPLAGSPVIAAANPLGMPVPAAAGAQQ
Chain of CK2A1 (CK2α/β) (P67870 whole entry partner, species assumed): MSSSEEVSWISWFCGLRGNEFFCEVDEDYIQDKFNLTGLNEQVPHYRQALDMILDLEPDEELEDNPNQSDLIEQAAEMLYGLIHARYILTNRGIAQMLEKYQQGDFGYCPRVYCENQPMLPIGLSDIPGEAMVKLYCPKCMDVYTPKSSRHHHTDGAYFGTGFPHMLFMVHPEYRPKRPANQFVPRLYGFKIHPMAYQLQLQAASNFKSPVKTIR
As for `N#Cc1cc(Nc2nc(NC3CC3)c3ncc(C#N)n3n2)c(Cl)c(N2CCC3NCCC3C2)c1` (racemic) [Example 442, 2-((2-chloro-5-cyano-3-(hexahydro-1H-pyrrolo[3,2-c]pyridin-5(6H)-yl)phenyl)amino)-4-(cyclopropylamino)imidazo[2,1-f][1,2,4]triazine-7-carbonitrile], the IC50 came to 0.77 nM.

Regarding `CC(O)CN1CCC2CN(c3cc(C#N)cc(Nc4nc(NC5CC5)c5ncc(C#N)n5n4)c3Cl)CCC21` (racemic) [Example 447, (+/−)-2-((2-chloro-5-cyano-3-(1-(2-hydroxypropyl)hexahydro-1H-pyrrolo[3,2-c]pyridin-5(6H)-yl)phenyl)amino)-4-(cyclopropylamino)imidazo[2,1-f][1,2,4]triazine-7-carbonitrile], the IC50 stood at 0.89 nM.

For `N#Cc1cc(Nc2nc(NC3CC3)c3ncc(C#N)n3n2)c(Cl)c(N2CCC3C(CCN3[C@H]3COC[C@@H]3O)C2)c1` (mixture of isomers) [Example 451, (+/−)-2-((2-chloro-5-cyano-3-(1-((3S,4R)-4-hydroxytetrahydrofuran-3-yl)hexahydro-1H-pyrrolo[3,2-c]pyridin-5(6H)-yl)phenyl)amino)-4-(cyclopropylamino)imidazo[2,1-f][1,2,4]triazine-7-carbonitrile], the IC50 turned out to be 5.52 nM.

For `N#Cc1cc(Nc2nc(NC3CC3)c3ncc(C#N)n3n2)c(Cl)c(N2CCC3CCNC3C2)c1` (racemic) [Example 454, (+/−)-2-((2-chloro-5-cyano-3-(hexahydro-1H-pyrrolo[2,3-c]pyridin-6(2H)-yl)phenyl)amino)-4-(cyclopropylamino)imidazo[2,1-f][1,2,4]triazine-7-carbonitrile], the IC50 was 1.25 nM.

As to `CN1CCC2CCN(c3cc(C#N)cc(Nc4nc(NC5CC5)c5ncc(C#N)n5n4)c3Cl)CC21` (racemic) [Example 456], the IC50 was determined as 2.9 nM.

As to `N#Cc1cc(Nc2nc(NC3CC3)c3ncc(C#N)n3n2)c(Cl)c(N2CCC3CCN(C4COC4)C3C2)c1` (racemic) [Example 457, (+/−)-2-((2-chloro-5-cyano-3-(1-(oxetan-3-yl)hexahydro-1H-pyrrolo[2,3-c]pyridin-6(2H)-yl)phenyl)amino)-4-(cyclopropylamino)imidazo[2,1-f][1,2,4]triazine-7-carbonitrile], the IC50 is 4.9 nM.

With `COC(=O)N1CCC2CCN(c3cc(C#N)cc(Nc4nc(NC5CC5)c5ncc(C#N)n5n4)c3Cl)CC21` (racemic) [Example 458, (+/−)-methyl 6-(2-chloro-5-cyano-3-((7-cyano-4-(cyclopropylamino)imidazo[2,1-f][1,2,4]triazin-2-yl)amino)phenyl)octahydro-1H-pyrrolo[2,3-c]pyridine-1-carboxylate], the IC50 was 16.4 nM.

`N#Cc1cc(Nc2nc(NC3CC3)c3ncc(C#N)n3n2)c(Cl)c(N2CCC3CCN(CC(O)CF)C3C2)c1` (racemic) [Example 459, (+/−)-2-((2-chloro-5-cyano-3-(1-(3-fluoro-2-hydroxypropyl)hexahydro-1H-pyrrolo[2,3-c]pyridin-6(2H)-yl)phenyl)amino)-4-(cyclopropylamino)imidazo[2,1-f][1,2,4]triazine-7-carbonitrile]: the IC50 was 1.27 nM.

For the compound `CC(O)CN1CCC2CCN(c3cc(C#N)cc(Nc4nc(NC5CC5)c5ncc(C#N)n5n4)c3Cl)CC21` (racemic) [Example 460, (+/−)-2-((2-chloro-5-cyano-3-(1-(2-hydroxypropyl)hexahydro-1H-pyrrolo[2,3-c]pyridin-6(2H)-yl)phenyl)amino)-4-(cyclopropylamino)imidazo[2,1-f][1,2,4]triazine-7-carbonitrile], the IC50 is 1.62 nM.

Take `N#Cc1cc(Nc2nc(NC3CC3)c3ncc(C#N)n3n2)c(Cl)c(N2CCN([C@@H]3CS(=O)(=O)C[C@H]3O)CC2)c1` (racemic) [Example 535, rac-2-((2-chloro-5-cyano-3-(4-((3R,4R)-4-hydroxy-1,1-dioxidotetrahydrothiophen-3-yl)piperazin-1-yl)phenyl)amino)-4-(cyclopropylamino)imidazo[2,1-f][1,2,4]triazine-7-carbonitrile]: the IC50 stood at 0.91 nM.

Turning to `N#Cc1cc(Nc2nc(NC3CC3)c3ncc(C#N)n3n2)c(F)c(N2CCN([C@@H]3COC[C@H]3O)CC2)c1` (racemic) [Example 552, rac-2-((5-cyano-2-fluoro-3-(4-((3R,4S)-4-hydroxytetrahydrofuran-3-yl)piperazin-1-yl)phenyl)amino)-4-(cyclopropylamino)imidazo[2,1-f][1,2,4]triazine-7-carbonitrile], the IC50 came out at 6.31 nM.

In the case of `N#Cc1cc(Nc2nc(NC3CC3)c3ncc(C#N)n3n2)c(F)c(N2CCN([C@@H]3CS(=O)(=O)C[C@H]3O)CC2)c1` (racemic) [Example 553, rac-2-((5-cyano-2-fluoro-3-(4-((3R,4R)-4-hydroxy-1,1-dioxidotetrahydrothiophen-3-yl)piperazin-1-yl)phenyl)amino)-4-(cyclopropylamino)imidazo[2,1-f][1,2,4]triazine-7-carbonitrile], the IC50 was 5.55 nM.

Turning to `N#Cc1cc(Nc2nc(NC3CC3)c3ncc(C#N)n3n2)c(Cl)c(N2CCN(CC(O)CF)CC2=O)c1` (racemic) [Example 622, (+/−)-2-((2-chloro-5-cyano-3-(4-(3-fluoro-2-hydroxypropyl)-2-oxopiperazin-1-yl)phenyl)amino)-4-(cyclopropylamino)imidazo[2,1-f][1,2,4]triazine-7-carbonitrile], the IC50 was found to be 1.09 nM.

As to `CC(O)CN1CCN(c2cc(C#N)cc(Nc3nc(NC4CC4)c4ncc(C#N)n4n3)c2Cl)C(=O)C1` (racemic) [Example 624, (+/−)-2-((2-chloro-5-cyano-3-(4-(2-hydroxypropyl)-2-oxopiperazin-1-yl)phenyl)amino)-4-(cyclopropylamino)imidazo[2,1-f][1,2,4]triazine-7-carbonitrile], the IC50 was found to be 2.94 nM.

For the compound `CN1CCN2CCN(c3cc(C#N)cc(Nc4nc(NC5CC5)c5ncc(C#N)n5n4)c3Cl)CC2C1=O` (racemic) [Example 626, (+/−)-2-((2-chloro-5-cyano-3-(8-methyl-9-oxohexahydro-1H-pyrazino[1,2-a]pyrazin-2(6H)-yl)phenyl)amino)-4-(cyclopropylamino)imidazo[2,1-f][1,2,4]triazine-7-carbonitrile], the IC50 came out at 0.74 nM.

In the case of `CC(C(N)=O)N1CCC(c2cc(C#N)cc(Nc3nc(NC4CC4)c4ncc(C#N)n4n3)c2Cl)CC1` (racemic) [Example 639, (+/−)-2-(4-(2-chloro-5-cyano-3-((7-cyano-4-(cyclopropylamino)imidazo[2,1-f][1,2,4]triazin-2-yl)amino)phenyl)piperidin-yl)propanamide], the IC50 was determined as 1.28 nM.

Take `CCNc1nc(Nc2cc(C#N)cc(C3CCN(C(C)C(N)=O)CC3)c2Cl)nn2c(C#N)cnc12` (racemic) [Example 640, (+/−)-2-(4-(2-chloro-5-cyano-3-((7-cyano-4-(ethylamino)imidazo[2,1-f][1,2,4]triazin-2-yl)amino)phenyl)piperidin-1-yl)propanamide]: the IC50 came out at 2.22 nM.

Consider `CC(O)c1cc(C#N)cc(Nc2nc(NC3CC3)c3ncc(C#N)n3n2)c1Cl` (racemic) [Example 677, (+/−)-2-((2-chloro-5-cyano-3-(1-hydroxyethyl)phenyl)amino)-4-(cyclopropylamino)imidazo[2,1-f][1,2,4]triazine-7-carbonitrile], for which the IC50 turned out to be 0.47 nM.

Regarding `CC(c1cc(C#N)cc(Nc2nc(NC3CC3)c3ncc(C#N)n3n2)c1Cl)N1CCN(S(C)(=O)=O)CC1` (racemic) [Example 678], the IC50 turned out to be 1.87 nM.
